Experimental data as given in patent US20110263516A1, “VASODILATOR” (CALPIS CO., LTD., priority 2006, published 2011).

How the values were obtained:
[1] = system: thoracic aorta ring of a Wistar rat; assay: Vasodilating test on phenylephrine-preconstricted aorta ring (Magnus apparatus); type: cell-based; settings: aorta ring preconstricted with 1 μM phenylephrine; for vasodilator response at 10 mM: FIG. 1; for concentration from which the vasodilator response was observed: ten-fold increasing concentrations from 10^-9 M, change in tension
Protocol: The thoracic aorta of a Wistar rat was taken out, cut into 2 mm long, and made into an aorta ring. The ring was set in a Magnus apparatus (product name “micro tissue organ bath MTB-1Z”, manufactured by LABO SUPPORT CO., LTD.), and allowed to equilibrate with a constant tension. The constriction response of the aorta ring was confirmed with 50 mM KCl.
Next, the aorta ring was preliminarily constricted with 1 μM phenylephrine, and VPP and IPP prepared in Synthesis Example were added at ten-fold increasing concentrations from 10^−9 M to observe the vasodilator response through the change in tension of the aorta ring. The dose dependency of the vasodilator response was also studied.
The vasodilating test was conducted in the same way as in Example 1, except that the tripeptides VPP and IPP were replaced with amino acids, valine (Val) and proline (Pro), at the same concentration.

[2] = system: blood vessel from which the vascular endothelium was physically removed; assay: Confirmatory test for endothelium dependency of vasodilator response; type: cell-based, Wistar rat; settings: endothelium-removed vessel compared with intact vessel; FIG. 2
Protocol: In order to confirm that the vasodilator effect of VPP and IPP was associated with the vascular endothelium, a vasodilating test similar to the above was conducted with VPP, using as a control a blood vessel from which the vascular endothelium was physically removed by a routine method.

Compound | vasodilator response at 10 mM [1] | concentration from which the vasodilator response was observed [1] [mM] | vasodilator response after removal of the endothelium [2]
Ile-Pro-Pro [IPP] | clear, transient vasodilator response | 1 | –
O=C(O)[C@@H]1CCCN1 [Pro, proline, reference compound] | no vasodilator response was observed | – | –
CC(C)[C@H](N)C(=O)O [Val, valine, reference compound] | no vasodilator response was observed | – | –
Val-Pro-Pro [VPP] | clear, transient vasodilator response | 1 | weakened
